{"source": "paper PMC11956013", "about": "“Structure–Activity Relationships and Evaluation of 2-(Heteroaryl-cycloalkyl)-1H-indoles as Tauopathy Positron Emission Tomography Radiotracers” (Journal of Medicinal Chemistry, 2025)", "key": {"[1]": {"target": "GABAA (alpha1/beta2/gamma2) Human Ion Channel, Picrotoxinin site (Homo sapiens, UniProt P14867+P18507+P47870)", "test": "biochemical", "format": "binding"}, "[2]": {"target": "carbonic anhydrase II (h) (Homo sapiens, UniProt P00918)", "details": "1.0E-05 M"}, "5-HT1A (h)": {"target": "5-HT1A (h) (Homo sapiens, UniProt P08908)", "sequence (P08908 whole entry)": "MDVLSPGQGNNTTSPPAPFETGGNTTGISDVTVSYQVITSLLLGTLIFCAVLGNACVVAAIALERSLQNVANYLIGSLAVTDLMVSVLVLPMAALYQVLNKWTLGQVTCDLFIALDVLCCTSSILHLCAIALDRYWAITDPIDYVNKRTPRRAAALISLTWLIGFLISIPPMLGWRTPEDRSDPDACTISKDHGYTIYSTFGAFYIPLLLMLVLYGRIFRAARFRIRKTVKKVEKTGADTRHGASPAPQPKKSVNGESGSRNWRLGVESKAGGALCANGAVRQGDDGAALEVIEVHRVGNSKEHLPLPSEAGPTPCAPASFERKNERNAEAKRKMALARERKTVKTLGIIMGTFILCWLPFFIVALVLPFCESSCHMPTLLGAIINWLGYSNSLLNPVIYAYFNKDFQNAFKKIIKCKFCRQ", "details": "1.0E-05 M; 5-HT1A (h) (agonist radioligand)"}, "CYP1A2": {"target": "CYP1A2 (Homo sapiens, UniProt P05177)", "test": "in vitro", "details": "human liver microsomes, probe tacrine"}, "human recombinant MAO-B": {"target": "T1, human recombinant MAO-B (Homo sapiens, UniProt P27338)", "T1 construct": "purchased Eurofins (contract assay)", "T1 sequence (P27338 whole entry)": "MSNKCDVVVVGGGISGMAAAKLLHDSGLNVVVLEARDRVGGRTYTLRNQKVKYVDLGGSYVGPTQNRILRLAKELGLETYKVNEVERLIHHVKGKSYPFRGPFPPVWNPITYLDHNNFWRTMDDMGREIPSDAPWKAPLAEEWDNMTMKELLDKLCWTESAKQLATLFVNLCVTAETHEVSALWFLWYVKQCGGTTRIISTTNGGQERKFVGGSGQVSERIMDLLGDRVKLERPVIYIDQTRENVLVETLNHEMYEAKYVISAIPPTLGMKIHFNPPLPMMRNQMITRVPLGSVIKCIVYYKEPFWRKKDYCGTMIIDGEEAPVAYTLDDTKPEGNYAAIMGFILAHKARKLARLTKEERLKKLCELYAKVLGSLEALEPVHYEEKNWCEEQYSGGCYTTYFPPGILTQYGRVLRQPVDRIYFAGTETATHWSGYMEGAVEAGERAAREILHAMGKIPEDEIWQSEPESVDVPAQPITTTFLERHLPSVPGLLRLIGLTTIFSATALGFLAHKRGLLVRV", "test": "Eurofins IC50 determination at human recombinant MAO-B", "format": "binding"}, "Na+ channel (site 2)": {"test_system": "Na+ channel (site 2)", "test": "Eurofins panel: Na+ channel (site 2) (antagonist radioligand)", "format": "binding", "details": "compound concentration 1.0E-05 M"}, "SKCa channel": {"test_system": "SKCa channel", "details": "compound concentration 1.0E-05 M"}, "AMPA": {"test_system": "AMPA", "test": "Eurofins panel: AMPA (agonist radioligand)", "format": "binding", "details": "1.0E-05 M; AMPA (agonist radioligand)"}, "A2A (h)": {"target": "A2A (h) (Homo sapiens, UniProt P29274)", "details": "1.0E-05 M; A2A (h) (agonist radioligand)"}, "PCP": {"test_system": "PCP", "test": "Eurofins panel: PCP (antagonist radioligand)", "format": "binding", "details": "compound concentration 1.0E-05 M"}, "dopamine transporter (h)": {"target": "dopamine transporter (h) (Homo sapiens, UniProt Q01959)", "sequence (Q01959 whole entry)": "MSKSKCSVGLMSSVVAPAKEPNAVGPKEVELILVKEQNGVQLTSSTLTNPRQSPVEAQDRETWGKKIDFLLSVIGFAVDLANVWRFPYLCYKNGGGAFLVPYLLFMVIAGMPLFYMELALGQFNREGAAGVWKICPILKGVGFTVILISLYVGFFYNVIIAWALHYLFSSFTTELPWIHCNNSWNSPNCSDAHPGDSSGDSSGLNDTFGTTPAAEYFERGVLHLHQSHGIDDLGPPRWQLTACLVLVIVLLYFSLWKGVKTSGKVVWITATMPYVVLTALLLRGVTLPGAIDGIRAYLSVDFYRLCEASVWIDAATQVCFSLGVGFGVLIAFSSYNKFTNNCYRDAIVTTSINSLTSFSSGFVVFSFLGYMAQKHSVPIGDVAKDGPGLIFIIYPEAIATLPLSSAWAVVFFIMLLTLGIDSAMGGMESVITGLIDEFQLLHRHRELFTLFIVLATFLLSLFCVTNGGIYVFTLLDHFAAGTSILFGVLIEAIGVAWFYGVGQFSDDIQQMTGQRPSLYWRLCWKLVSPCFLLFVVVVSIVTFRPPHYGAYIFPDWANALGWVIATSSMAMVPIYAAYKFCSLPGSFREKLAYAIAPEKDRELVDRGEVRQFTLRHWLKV", "test": "dopamine transporter (h) (antagonist radioligand), Eurofins assay 52"}, "CB2 (h)": {"target": "CB2 (h) (Homo sapiens, UniProt P34972)", "sequence (P34972 whole entry)": "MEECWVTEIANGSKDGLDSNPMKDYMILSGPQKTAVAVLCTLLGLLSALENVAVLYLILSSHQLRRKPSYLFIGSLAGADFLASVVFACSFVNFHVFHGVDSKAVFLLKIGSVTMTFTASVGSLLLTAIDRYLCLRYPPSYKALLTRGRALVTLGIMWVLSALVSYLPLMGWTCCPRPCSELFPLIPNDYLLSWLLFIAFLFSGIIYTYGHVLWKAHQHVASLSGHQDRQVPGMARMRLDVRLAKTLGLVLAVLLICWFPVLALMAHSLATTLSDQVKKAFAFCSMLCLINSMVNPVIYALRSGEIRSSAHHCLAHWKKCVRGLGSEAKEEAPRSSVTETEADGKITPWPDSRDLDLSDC", "test": "CB2 (h) (agonist radioligand), Eurofins assay 37"}, "Y1 (h)": {"target": "Y1 (h) (Homo sapiens, UniProt P25929)", "sequence (P25929 whole entry)": "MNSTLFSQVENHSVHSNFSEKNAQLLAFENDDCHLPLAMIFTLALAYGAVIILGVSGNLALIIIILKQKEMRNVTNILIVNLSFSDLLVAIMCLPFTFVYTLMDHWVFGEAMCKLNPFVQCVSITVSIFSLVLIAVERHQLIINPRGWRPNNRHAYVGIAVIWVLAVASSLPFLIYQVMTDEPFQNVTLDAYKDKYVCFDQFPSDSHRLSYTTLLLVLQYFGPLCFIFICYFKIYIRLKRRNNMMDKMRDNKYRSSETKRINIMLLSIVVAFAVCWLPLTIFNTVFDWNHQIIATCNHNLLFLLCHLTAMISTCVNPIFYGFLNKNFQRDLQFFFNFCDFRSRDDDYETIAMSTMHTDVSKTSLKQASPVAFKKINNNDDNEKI", "details": "compound concentration 1.0E-05 M"}, "ATPase (Na+/K+)": {"test_system": "ATPase (Na+/K+)", "test": "Eurofins panel: ATPase (Na+/K+) enzymatic activity", "format": "biochemical", "details": "1.0E-05 M"}, "human 5-HT2B": {"target": "T2, human 5-HT2B (Homo sapiens, UniProt P41595)", "T2 construct": "purchased Eurofins (contract screening, CNS SafetyScreen panel)", "T2 sequence (P41595 whole entry)": "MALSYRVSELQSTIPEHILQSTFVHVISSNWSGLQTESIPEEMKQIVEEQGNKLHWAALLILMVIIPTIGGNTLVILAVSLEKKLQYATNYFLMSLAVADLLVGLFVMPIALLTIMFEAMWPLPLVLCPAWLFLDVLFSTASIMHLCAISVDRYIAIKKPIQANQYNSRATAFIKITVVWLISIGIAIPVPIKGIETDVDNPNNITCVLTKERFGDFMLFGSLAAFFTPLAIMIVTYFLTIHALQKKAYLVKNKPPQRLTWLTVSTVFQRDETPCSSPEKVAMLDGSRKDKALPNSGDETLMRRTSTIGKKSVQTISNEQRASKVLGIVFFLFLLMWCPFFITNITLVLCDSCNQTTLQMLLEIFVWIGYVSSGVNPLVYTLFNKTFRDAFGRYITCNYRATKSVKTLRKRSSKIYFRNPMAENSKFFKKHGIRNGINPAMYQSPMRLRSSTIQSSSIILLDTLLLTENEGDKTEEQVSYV", "test": "Eurofins CNS SafetyScreen panel: 5-HT2B (vs ± DOI)", "format": "binding"}, "5-HT7 (h)": {"target": "5-HT7 (h) (Homo sapiens, UniProt P34969)", "sequence (P34969 whole entry)": "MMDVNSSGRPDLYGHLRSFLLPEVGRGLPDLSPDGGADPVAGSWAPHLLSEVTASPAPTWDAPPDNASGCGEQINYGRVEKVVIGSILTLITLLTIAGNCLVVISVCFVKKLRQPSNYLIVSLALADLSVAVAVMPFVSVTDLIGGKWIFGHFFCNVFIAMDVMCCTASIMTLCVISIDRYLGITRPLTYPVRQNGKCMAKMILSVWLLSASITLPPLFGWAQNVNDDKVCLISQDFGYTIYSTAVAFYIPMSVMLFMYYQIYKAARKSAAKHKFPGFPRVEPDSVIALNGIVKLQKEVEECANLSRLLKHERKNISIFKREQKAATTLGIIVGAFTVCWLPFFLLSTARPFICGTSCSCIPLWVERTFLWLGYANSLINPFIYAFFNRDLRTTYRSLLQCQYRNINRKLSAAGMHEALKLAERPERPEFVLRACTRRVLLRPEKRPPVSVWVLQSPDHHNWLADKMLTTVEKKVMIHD", "details": "1.0E-05 M; 5-HT7 (h) (agonist radioligand)"}, "H3 (h)": {"target": "H3 (h) (Homo sapiens, UniProt Q9Y5N1)", "test": "biochemical"}, "NK1 (h)": {"target": "NK1 (h) (Homo sapiens, UniProt P25103)", "details": "compound concentration 1.0E-05 M"}, "ETA (h)": {"target": "ETA (h) (Homo sapiens, UniProt P25101)", "sequence (P25101 21-427)": "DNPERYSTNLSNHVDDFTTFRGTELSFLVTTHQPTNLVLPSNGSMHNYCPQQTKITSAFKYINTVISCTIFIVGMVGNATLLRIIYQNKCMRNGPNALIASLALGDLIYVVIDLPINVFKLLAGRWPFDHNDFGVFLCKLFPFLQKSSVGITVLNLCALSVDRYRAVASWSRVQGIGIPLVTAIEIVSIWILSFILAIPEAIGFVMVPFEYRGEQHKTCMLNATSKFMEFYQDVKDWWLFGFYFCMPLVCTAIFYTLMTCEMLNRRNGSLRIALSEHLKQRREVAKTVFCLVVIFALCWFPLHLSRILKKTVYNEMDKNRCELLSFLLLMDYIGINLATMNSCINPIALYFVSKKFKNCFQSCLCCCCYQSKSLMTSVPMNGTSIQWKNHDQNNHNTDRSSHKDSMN", "test": "biochemical"}, "B2 (h)": {"target": "B2 (h) (Homo sapiens, UniProt P30411)", "sequence (P30411 whole entry)": "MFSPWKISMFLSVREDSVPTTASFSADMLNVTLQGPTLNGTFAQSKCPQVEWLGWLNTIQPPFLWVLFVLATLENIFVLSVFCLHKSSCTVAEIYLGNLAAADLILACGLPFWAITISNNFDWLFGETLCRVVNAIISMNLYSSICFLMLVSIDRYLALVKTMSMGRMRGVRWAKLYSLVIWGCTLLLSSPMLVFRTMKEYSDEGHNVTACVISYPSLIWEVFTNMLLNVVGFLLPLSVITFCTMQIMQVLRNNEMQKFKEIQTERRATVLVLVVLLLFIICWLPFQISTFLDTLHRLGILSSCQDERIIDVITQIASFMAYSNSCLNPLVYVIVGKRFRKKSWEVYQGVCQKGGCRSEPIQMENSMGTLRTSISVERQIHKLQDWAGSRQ", "details": "1.0E-05 M; B2 (h) (agonist radioligand)"}, "5-HT4e (h)": {"target": "5-HT4e (h) (Homo sapiens, UniProt Q13639)", "sequence (Q13639 1-378 isoform Q13639-5)": "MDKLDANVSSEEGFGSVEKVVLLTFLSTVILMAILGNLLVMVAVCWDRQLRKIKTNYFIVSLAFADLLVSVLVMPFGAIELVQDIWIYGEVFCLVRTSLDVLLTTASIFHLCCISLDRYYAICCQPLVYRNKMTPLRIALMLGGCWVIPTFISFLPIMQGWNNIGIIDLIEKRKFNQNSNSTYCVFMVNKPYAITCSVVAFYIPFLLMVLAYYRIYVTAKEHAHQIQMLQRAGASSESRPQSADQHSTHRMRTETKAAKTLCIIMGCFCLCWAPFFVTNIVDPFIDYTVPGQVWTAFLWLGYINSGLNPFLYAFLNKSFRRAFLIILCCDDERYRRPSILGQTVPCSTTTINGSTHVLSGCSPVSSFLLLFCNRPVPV", "test": "Eurofins panel: 5-HT4e (h) (antagonist radioligand)", "details": "1.0E-05 M; 5-HT4e (h) (antagonist radioligand)"}, "M1 (h)": {"target": "T3, M1 (h) (Homo sapiens, UniProt P11229)", "T3 construct": "purchased Eurofins (CNS SafetyScreen panel, contract assay) assay 91", "T3 sequence (P11229 whole entry)": "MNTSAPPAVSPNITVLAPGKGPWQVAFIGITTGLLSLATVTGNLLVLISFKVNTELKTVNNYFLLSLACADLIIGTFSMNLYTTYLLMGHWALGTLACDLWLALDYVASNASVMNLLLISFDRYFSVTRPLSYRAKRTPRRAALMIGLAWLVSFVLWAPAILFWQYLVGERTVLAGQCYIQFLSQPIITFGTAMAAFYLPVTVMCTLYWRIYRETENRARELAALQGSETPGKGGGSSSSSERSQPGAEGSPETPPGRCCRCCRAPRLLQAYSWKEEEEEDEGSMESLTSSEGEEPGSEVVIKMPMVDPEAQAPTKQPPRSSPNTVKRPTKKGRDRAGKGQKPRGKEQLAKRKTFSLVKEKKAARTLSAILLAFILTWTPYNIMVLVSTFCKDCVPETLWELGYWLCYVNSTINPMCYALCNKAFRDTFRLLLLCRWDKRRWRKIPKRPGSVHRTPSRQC", "test": "biochemical", "format": "binding"}, "NMDA": {"test_system": "NMDA", "test": "Eurofins panel: NMDA (antagonist radioligand)", "format": "binding", "details": "compound concentration 1.0E-05 M"}, "5-HT2C (h)": {"target": "T4, 5-HT2C (h) (Homo sapiens, UniProt P28335)", "T4 construct": "purchased Eurofins (contract screening, CNS SafetyScreen panel)", "T4 sequence (P28335 33-458)": "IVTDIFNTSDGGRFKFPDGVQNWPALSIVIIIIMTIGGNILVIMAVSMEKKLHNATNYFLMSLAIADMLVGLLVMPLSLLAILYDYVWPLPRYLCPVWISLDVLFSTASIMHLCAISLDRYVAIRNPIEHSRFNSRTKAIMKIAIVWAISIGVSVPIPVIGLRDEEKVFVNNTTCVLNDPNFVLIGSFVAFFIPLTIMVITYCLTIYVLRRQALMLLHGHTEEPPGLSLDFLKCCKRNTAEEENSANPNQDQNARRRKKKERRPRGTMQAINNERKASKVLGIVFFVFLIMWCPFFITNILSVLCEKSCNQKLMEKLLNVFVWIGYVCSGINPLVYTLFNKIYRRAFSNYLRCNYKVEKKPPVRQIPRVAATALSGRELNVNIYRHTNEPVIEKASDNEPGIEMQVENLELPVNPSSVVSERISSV", "test": "Eurofins panel: 5-HT2C (h) (agonist radioligand)", "format": "binding", "details": "1.0E-05 M; 5-HT2C (h) (agonist radioligand)"}, "alpha1A (h)": {"target": "T5, alpha1A (h) (Homo sapiens, UniProt P35348)", "T5 sequence (P35348 1-466)": "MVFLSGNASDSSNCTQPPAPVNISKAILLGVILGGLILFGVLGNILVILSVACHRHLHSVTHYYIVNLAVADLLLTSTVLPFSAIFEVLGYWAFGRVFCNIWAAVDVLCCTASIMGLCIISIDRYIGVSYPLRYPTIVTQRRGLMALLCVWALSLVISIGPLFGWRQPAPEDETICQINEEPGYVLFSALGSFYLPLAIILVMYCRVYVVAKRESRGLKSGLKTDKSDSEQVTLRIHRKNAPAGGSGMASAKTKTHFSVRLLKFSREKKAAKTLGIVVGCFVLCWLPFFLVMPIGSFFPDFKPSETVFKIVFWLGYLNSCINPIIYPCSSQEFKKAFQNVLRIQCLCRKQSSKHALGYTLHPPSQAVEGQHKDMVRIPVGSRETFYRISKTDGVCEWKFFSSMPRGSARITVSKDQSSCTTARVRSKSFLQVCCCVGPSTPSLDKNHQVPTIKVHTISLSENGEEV", "test": "Eurofins panel: alpha1A (h) (antagonist radioligand)", "details": "1.0E-05 M; alpha1A (h) (antagonist radioligand)"}, "V1a (h)": {"target": "V1a (h) (Homo sapiens, UniProt P37288)", "details": "compound concentration 1.0E-05 M"}}}
{"smiles": "Fc1nc(N2CCOCC2)ccc1-c1cc2ccccc2[nH]1", "note": "[Compound 75, 4-(6-Fluoro-5-(1H-indol-2-yl)pyridin-2-yl)morpholine]", "values": [{"measurement": "inhibition at 10 µM", "setting": "[1]", "value": 8.53, "unit": "%"}, {"measurement": "% Inhibition, Enzymatic activity", "setting": "[2]", "value": "-2.68E+01", "unit": "%"}, {"measurement": "% Inhibition, Specific binding", "setting": "5-HT1A (h)", "value": 11.4159, "unit": "%"}, {"measurement": "inhibition at 10 µM", "setting": "CYP1A2", "value": -10.4, "unit": "%"}, {"measurement": "IC50", "setting": "human recombinant MAO-B", "value": 3, "unit": "µM"}, {"measurement": "% Inhibition, Specific binding", "setting": "Na+ channel (site 2)", "value": "-1.89E+01", "unit": "%"}, {"measurement": "% Inhibition, Specific binding", "setting": "SKCa channel", "value": 0.9001, "unit": "%"}, {"measurement": "% Inhibition, Specific binding", "setting": "AMPA", "value": 4.317, "unit": "%"}, {"measurement": "% Inhibition, Specific binding", "setting": "A2A (h)", "value": 6.474, "unit": "%"}, {"measurement": "% Inhibition, Specific binding", "setting": "PCP", "value": "-3.84E+00", "unit": "%"}, {"measurement": "inhibition at 10 µM", "setting": "dopamine transporter (h)", "value": 17.2, "unit": "%"}, {"measurement": "inhibition at 10 µM", "setting": "CB2 (h)", "value": -17.9, "unit": "%"}, {"measurement": "% Inhibition, Specific binding", "setting": "Y1 (h)", "value": "-2.40E+01", "unit": "%"}, {"measurement": "% Inhibition, Enzymatic activity", "setting": "ATPase (Na+/K+)", "value": "-2.26E+00", "unit": "%"}, {"measurement": "% Inhibition, Specific binding", "setting": "human 5-HT2B; 1.0E-05 M, 5-HT2B (h) (agonist radioligand)", "value": 44.5993, "unit": "%"}, {"measurement": "inhibition at human 5-HT2B (vs ± DOI)", "setting": "human 5-HT2B; 10-μM concentration", "value": 44.6, "unit": "%"}, {"measurement": "% Inhibition, Specific binding", "setting": "5-HT7 (h)", "value": "-1.16E+00", "unit": "%"}, {"measurement": "inhibition at 10 µM", "setting": "H3 (h)", "value": -4.9, "unit": "%"}, {"measurement": "% Inhibition, Specific binding", "setting": "NK1 (h)", "value": 21.8946, "unit": "%"}, {"measurement": "inhibition at 10 µM", "setting": "ETA (h)", "value": 4.29, "unit": "%"}, {"measurement": "% Inhibition, Specific binding", "setting": "B2 (h)", "value": "-1.15E+01", "unit": "%"}, {"measurement": "% Inhibition, Specific binding", "setting": "5-HT4e (h)", "value": 10.412, "unit": "%"}, {"measurement": "inhibition at 10 µM", "setting": "M1 (h)", "value": -8.86, "unit": "%"}, {"measurement": "% Inhibition, Specific binding", "setting": "NMDA", "value": "-1.90E-01", "unit": "%"}, {"measurement": "% Inhibition, Specific binding", "setting": "5-HT2C (h)", "value": 5.817, "unit": "%"}, {"measurement": "% Inhibition, Specific binding", "setting": "alpha1A (h)", "value": 3.065, "unit": "%"}, {"measurement": "% Inhibition, Specific binding", "setting": "V1a (h)", "value": "-8.82E-01", "unit": "%"}]}
